Data taken from PubChem BioAssay (NCI).
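Following 48 hours of exposure in 96-well plates, responses at five concentrations were used to interpolate endpoints linearly. Here, GI50 denotes the concentration required for 50% inhibition of growth. The concentration for full growth arrest is given as TGI.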

Columns and labels:
Test in all cases: DTP human tumour cell line panel, 48 h
SK-MEL-28 melanoma = test system: SK-MEL-28 melanoma
SN12C renal = test system: SN12C renal
EKVX NSCLC = test system: EKVX NSCLC
SK-MEL-2 melanoma = test system: SK-MEL-2 melanoma
PC-3 prostate = test system: PC-3 prostate
HS 578T breast = test system: HS 578T breast
HCT-116 colon = test system: HCT-116 colon
MALME-3M melanoma = test system: MALME-3M melanoma
UO-31 renal = test system: UO-31 renal

c1ccc2c(c1)[nH]c1nc3cc(-c4ccc5nc6c(nc5c4)[nH]c4ccccc46)ccc3nc12
TGI (SK-MEL-28 melanoma): > 100 µM | TGI (SN12C renal): > 100 µM | TGI (EKVX NSCLC): > 100 µM | TGI (SK-MEL-2 melanoma): > 100 µM | TGI (PC-3 prostate): > 100 µM | TGI (HS 578T breast): > 100 µM | TGI (HCT-116 colon): > 100 µM | TGI (MALME-3M melanoma): > 100 µM | TGI (UO-31 renal): > 100 µM

COc1ccc(N[C@H](CSc2ccc(C)cc2)c2ccc(F)cc2)cc1
TGI (SK-MEL-28 melanoma): > 100 µM | TGI (SN12C renal): > 100 µM | TGI (EKVX NSCLC): > 100 µM | TGI (SK-MEL-2 melanoma): > 100 µM | TGI (PC-3 prostate): > 100 µM | TGI (HCT-116 colon): > 100 µM | TGI (UO-31 renal): > 100 µM

C[n+]1c(-c2ccccc2)cc2/c(=C\c3ccc([N+](=O)[O-])cc3)c3ccccc3n21
TGI (SK-MEL-28 melanoma): 24 µM | TGI (SN12C renal): > 33.6 µM | TGI (EKVX NSCLC): 44.2 µM | TGI (SK-MEL-2 melanoma): 10.9 µM | TGI (PC-3 prostate): 21.1 µM | TGI (HS 578T breast): 4.04 µM | TGI (HCT-116 colon): 14 µM | TGI (UO-31 renal): 35.5 µM

O=C1NCCCc2nonc21
TGI (SK-MEL-28 melanoma): > 100 µM | TGI (SN12C renal): > 100 µM | TGI (EKVX NSCLC): > 100 µM | TGI (SK-MEL-2 melanoma): > 100 µM | TGI (PC-3 prostate): > 100 µM | TGI (HS 578T breast): > 100 µM | TGI (HCT-116 colon): > 100 µM | TGI (MALME-3M melanoma): > 100 µM | TGI (UO-31 renal): > 100 µM

CN(C)c1ccc(-c2c(C#N)c(S)n(NS(=O)(=O)c3ccccc3)c(=O)c2C#N)cc1
TGI (SK-MEL-28 melanoma): > 100 µM | TGI (SN12C renal): 76.2 µM | TGI (EKVX NSCLC): > 100 µM | TGI (SK-MEL-2 melanoma): > 100 µM | TGI (PC-3 prostate): > 100 µM | TGI (HCT-116 colon): > 100 µM | TGI (MALME-3M melanoma): > 100 µM | TGI (UO-31 renal): 86.4 µM

CCC(C(=O)O)c1ccc(OCc2ccccc2)cc1 (configuration not stated)
TGI (SK-MEL-28 melanoma): > 100 µM | TGI (SN12C renal): > 100 µM | TGI (EKVX NSCLC): > 100 µM | TGI (SK-MEL-2 melanoma): > 100 µM | TGI (HCT-116 colon): > 100 µM | TGI (MALME-3M melanoma): > 100 µM | TGI (UO-31 renal): > 100 µM

Cc1nn(C(=O)Cc2ccccc2)c2c1C(c1ccccc1O)SC(N)=N2 (configuration not stated)
TGI (SK-MEL-28 melanoma): > 100 µM | TGI (SN12C renal): > 100 µM | TGI (EKVX NSCLC): > 100 µM | TGI (PC-3 prostate): > 100 µM | TGI (HS 578T breast): > 100 µM | TGI (HCT-116 colon): > 100 µM | TGI (MALME-3M melanoma): > 100 µM | TGI (UO-31 renal): > 100 µM

CCN(CC)CCOC(NC(C)=O)(c1ccccc1)c1ccccc1
TGI (SK-MEL-28 melanoma): > 100 µM | TGI (SN12C renal): > 100 µM | TGI (EKVX NSCLC): > 100 µM | TGI (HS 578T breast): > 100 µM | TGI (HCT-116 colon): > 100 µM | TGI (MALME-3M melanoma): > 100 µM | TGI (UO-31 renal): > 100 µM

N#Cc1nc(-c2cc([N+](=O)[O-])cc([N+](=O)[O-])c2)oc1N
TGI (SK-MEL-28 melanoma): > 10 µM | TGI (SN12C renal): > 10 µM | TGI (EKVX NSCLC): > 10 µM | TGI (PC-3 prostate): > 10 µM | TGI (HS 578T breast): > 10 µM | TGI (HCT-116 colon): > 10 µM | TGI (MALME-3M melanoma): > 10 µM | TGI (UO-31 renal): > 10 µM

Nc1nn2c(C(Br)Br)cc(C(Br)Br)nc2c1[N+](=O)[O-]
TGI (SK-MEL-28 melanoma): 2.88 µM | TGI (EKVX NSCLC): 6.45 µM | TGI (PC-3 prostate): 2.73 µM | TGI (HS 578T breast): 6.28 µM | TGI (HCT-116 colon): 2.23 µM | TGI (MALME-3M melanoma): 2.14 µM | TGI (UO-31 renal): 2.5 µM

COc1ccc(/C(=N/O)c2ccccc2-c2nc3ccccc3c(=O)n2-c2ccc(S(=O)(=O)Nc3ncccn3)cc2)cc1C
TGI (SK-MEL-28 melanoma): 23 µM | TGI (SN12C renal): > 31.6 µM | TGI (EKVX NSCLC): > 31.6 µM | TGI (PC-3 prostate): > 31.6 µM | TGI (HS 578T breast): > 100 µM | TGI (HCT-116 colon): 22.1 µM | TGI (UO-31 renal): > 31.6 µM

CCNC(=O)Nc1ccccn1
TGI (SK-MEL-28 melanoma): > 100 µM | TGI (SN12C renal): > 100 µM | TGI (EKVX NSCLC): > 100 µM | TGI (PC-3 prostate): > 100 µM | TGI (HS 578T breast): > 100 µM | TGI (HCT-116 colon): > 100 µM | TGI (MALME-3M melanoma): > 100 µM | TGI (UO-31 renal): > 100 µM

COC(=O)c1ccccc1/C=C1/Cc2ccccc2C1=O
TGI (SK-MEL-28 melanoma): > 100 µM | TGI (SN12C renal): 36.5 µM | TGI (EKVX NSCLC): > 100 µM | TGI (PC-3 prostate): > 100 µM | TGI (HS 578T breast): 97.3 µM | TGI (HCT-116 colon): 62.8 µM | TGI (MALME-3M melanoma): > 100 µM | TGI (UO-31 renal): > 100 µM

Cc1cc2c(C)cc(=O)[nH]c2cc1N
TGI (SK-MEL-28 melanoma): > 100 µM | TGI (SN12C renal): > 100 µM | TGI (EKVX NSCLC): > 100 µM | TGI (PC-3 prostate): > 100 µM | TGI (HCT-116 colon): > 100 µM | TGI (UO-31 renal): > 100 µM

Cc1cc(-c2nc3c(O)cccc3s2)ccc1N
TGI (SK-MEL-28 melanoma): > 100 µM | TGI (SN12C renal): 90.7 µM | TGI (EKVX NSCLC): 52.9 µM | TGI (SK-MEL-2 melanoma): 52.9 µM | TGI (PC-3 prostate): 52.6 µM | TGI (HS 578T breast): 40.8 µM | TGI (HCT-116 colon): 49 µM | TGI (UO-31 renal): 36.6 µM

O=C(NC(Cc1c[nH]c2ccccc12)C(=O)O)/C(=C/c1ccccc1O)NC(=O)c1ccccc1 (configuration not stated)
TGI (SK-MEL-28 melanoma): > 100 µM | TGI (SN12C renal): 63.9 µM | TGI (EKVX NSCLC): > 100 µM | TGI (HS 578T breast): 73.3 µM | TGI (HCT-116 colon): > 100 µM | TGI (MALME-3M melanoma): > 100 µM | TGI (UO-31 renal): 18.7 µM

CCCCN1CCN(c2ccc3nc(-c4ccc5nc(-c6ccc(C(F)(F)F)cc6)[nH]c5c4)[nH]c3c2)CC1
GI50 (SK-MEL-28 melanoma): 1.69 µM | TGI (SK-MEL-28 melanoma): 3.19 µM | GI50 (SN12C renal): 1.61 µM | TGI (SN12C renal): 3.21 µM | GI50 (EKVX NSCLC): 1.57 µM | TGI (EKVX NSCLC): 3.07 µM | GI50 (SK-MEL-2 melanoma): 1.76 µM | TGI (SK-MEL-2 melanoma): 3.31 µM | GI50 (PC-3 prostate): 0.962 µM | TGI (PC-3 prostate): 2.31 µM | GI50 (HS 578T breast): 1.82 µM | TGI (HS 578T breast): 3.73 µM | GI50 (HCT-116 colon): 0.348 µM | TGI (HCT-116 colon): 1.27 µM | GI50 (UO-31 renal): 1.75 µM | TGI (UO-31 renal): 3.24 µM

N#Cc1c(-c2ccccc2)/c(=C\Nc2ccc(Cl)cc2)c(=O)n2c1nc1ccccc12
TGI (SK-MEL-28 melanoma): > 100 µM | TGI (SN12C renal): > 100 µM | TGI (SK-MEL-2 melanoma): > 100 µM | TGI (PC-3 prostate): > 100 µM | TGI (HCT-116 colon): 19.6 µM | TGI (MALME-3M melanoma): > 100 µM | TGI (UO-31 renal): > 100 µM

CCCCCCCCCC[C@H](O)[C@H]1CC[C@H]([C@H]2CC[C@H]([C@H](O)CC[C@H](O)CCCCCCC[C@@H](O)CC3=C[C@H](C)OC3=O)O2)O1
GI50 (SK-MEL-28 melanoma): > 100 µM | TGI (SK-MEL-28 melanoma): > 100 µM | TGI (SN12C renal): > 100 µM | TGI (EKVX NSCLC): > 100 µM | TGI (SK-MEL-2 melanoma): > 100 µM | TGI (PC-3 prostate): > 100 µM | TGI (HCT-116 colon): > 100 µM | TGI (MALME-3M melanoma): > 100 µM | GI50 (UO-31 renal): 23.6 µM | TGI (UO-31 renal): > 100 µM

CCOC(=O)c1[nH]cc(C)c1-c1ccn(-c2ccccc2)c1
TGI (SK-MEL-28 melanoma): > 100 µM | TGI (SN12C renal): > 100 µM | TGI (EKVX NSCLC): > 100 µM | TGI (SK-MEL-2 melanoma): > 100 µM | TGI (PC-3 prostate): > 100 µM | TGI (HS 578T breast): > 100 µM | TGI (HCT-116 colon): > 100 µM | TGI (UO-31 renal): > 100 µM

Cc1cn2c(/C=C3/C(=O)Nc4cccc(Cl)c43)c(Cl)nc2s1
TGI (SK-MEL-28 melanoma): 36.5 µM | TGI (SN12C renal): > 100 µM | TGI (EKVX NSCLC): > 100 µM | TGI (PC-3 prostate): > 100 µM | TGI (HS 578T breast): 42.5 µM | TGI (HCT-116 colon): > 100 µM | TGI (MALME-3M melanoma): > 100 µM | TGI (UO-31 renal): > 100 µM

O=C1c2ccccc2CN1c1ccc(O)cc1
TGI (SK-MEL-28 melanoma): > 100 µM | TGI (SN12C renal): > 100 µM | TGI (EKVX NSCLC): > 100 µM | TGI (SK-MEL-2 melanoma): > 100 µM | TGI (PC-3 prostate): > 100 µM | TGI (HS 578T breast): > 100 µM | TGI (HCT-116 colon): > 100 µM | TGI (MALME-3M melanoma): > 100 µM

Nc1c2ccccc2nc2c1ccc1ncccc12
TGI (SK-MEL-28 melanoma): > 100 µM | TGI (SN12C renal): > 100 µM | TGI (EKVX NSCLC): > 100 µM | TGI (SK-MEL-2 melanoma): 42.1 µM | TGI (PC-3 prostate): > 100 µM | TGI (HCT-116 colon): > 100 µM | TGI (MALME-3M melanoma): 27 µM | TGI (UO-31 renal): 40.2 µM

CC(=O)OC[C@]1(C(=O)C(O)c2ccoc2)[C@H](C)CC[C@@]23COC(=O)C2=CCC[C@@H]31 (some centres not stated)
TGI (SN12C renal): > 10 µM | TGI (EKVX NSCLC): > 10 µM | TGI (SK-MEL-2 melanoma): > 10 µM | TGI (PC-3 prostate): > 10 µM | TGI (HS 578T breast): > 10 µM | TGI (HCT-116 colon): > 10 µM | TGI (UO-31 renal): > 10 µM

CC(=O)NS(=O)(=O)c1ccc(NC(=O)c2c3ccccc3nc3ccccc23)cc1
TGI (SK-MEL-28 melanoma): > 100 µM | TGI (SN12C renal): > 100 µM | TGI (EKVX NSCLC): > 100 µM | TGI (SK-MEL-2 melanoma): > 100 µM | TGI (PC-3 prostate): > 100 µM | TGI (HCT-116 colon): > 100 µM | TGI (MALME-3M melanoma): > 100 µM | TGI (UO-31 renal): > 100 µM
